In patent US8183234B2, “Tricyclic guanidine derivatives as sodium-proton exchange inhibitors” (Piramal Life Sciences Limited, priority 2004, dated 2012) one finds melting point data, which are given here for 23 molecules.

For orientation: melting point means the temperature of the solid-liquid transition.

Each structure is given as a SMILES string. Where a name gives a salt, the structure may show the parent alone.

In turn, `CS(=O)(=O)O.CS(=O)(=O)O.CS(=O)(=O)O.Cc1cc(C(=O)NC(=N)N)cc2c1Oc1c(Cl)cc(N(CCN3CCCC3)C(=O)CNC3CC3)cc1CS2(=O)=O` [Example 150, N-(4-Chloro-8-guanidinocarbonyl-6-methyl-10,10-dioxo-10,11-dihydro-5-oxa-10-lambda*6*-thia-dibenzo[a,d]cycloheptene-2-yl)-2-cyclopropylamino-N-(2-pyrrolidin-1-yl-ethyl)-acetamide trimesylate] gave a melting point of 150 to 152 °C.
Then `Cc1cc2c(cc1C(=O)N=C(N)N)S(=O)(=O)Cc1ccccc1N2` (as salt: sulfonic acid salt) [Example 183, N-(7-Methyl-10,10-dioxo-10,11-dihydro-5H-10lambda*6*-thia-5-aza-dibenzo[a.d]cycloheptene-8-carbonyl)-guanidine, methane sulfonic acid salt], with 292 to 294 °C.
Then `Cc1cc(C(=O)N=C(N)N)cc2c1Oc1c(Cl)cc(N3CCN(Cc4ccccc4)CC3)cc1CS2(=O)=O` (as salt: mesylate) [Example 118, N-[2-(4-Benzyl-piperazin-1-yl)-4-chloro-6-methyl-10,10-dioxo-10,11-dihydro-5-oxa-10lambda*6*-thia-dibenzo[a,d]cycloheptene-8-carbonyl]-guanidine dimesylate], with 280 to 285 °C; and `CS(=O)(=O)O.CS(=O)(=O)O.Cc1cc(C(=O)NC(=N)N)cc2c1Oc1c(Cl)cc(N(CCN(C)C)C(=O)C(C)(C)C)cc1CS2(=O)=O` [Example 101, N-(4-Chloro-8-guanidinocarbonyl-6-methyl-10,10-dioxo-10,11-dihydro-5-oxa-10lambda*6*-thia-dibenzo[a,d]cyclohepten-2-yl)-N-(2-dimethylamino-ethyl)-2,2-dimethyl-propionamide dimesylate], with 171 to 173 °C.
`CS(=O)(=O)O.CS(=O)(=O)O.CS(=O)(=O)O.Cc1cc(C(=O)NC(=N)N)cc2c1Oc1c(Cl)cc(N3CCN(Cc4cccnc4)CC3)cc1CS2(=O)=O` [Example 128, N-[4-Chloro-6-methyl-10,10-dioxo-2-(4-pyridin-3-ylmethyl-piperazin-1-yl)-10,11-dihydro-5-oxa-10lambda*6*-thia-dibenzo[a,d]cycloheptene-8-carbonyl]-guanidine trimesylate] had a melting point of 190 to 192 °C.
Take `CCCCCCCCCCN1CCN(c2cc(Cl)c3c(c2)CS(=O)(=O)c2cc(C(=O)NC(=N)N)cc(C)c2O3)CC1.CS(=O)(=O)O.CS(=O)(=O)O` [Example 105, N-[4-Chloro-2-(4-decyl-piperazin-1-yl)-6-methyl-10,10-dioxo-10,11-dihydro-5-oxa-10lambda*6*-thia-dibenzo[a,d]cycloheptene-8-carbonyl]-guanidine dimesylate]: the melting point fell in the range of 184 to 185 °C.
Then `CC(=O)N(CCN1CCOCC1)c1cc(Cl)c2c(c1)CS(=O)(=O)c1cc(C(=O)NC(=N)N)cc(C)c1O2.CS(=O)(=O)O.CS(=O)(=O)O` [Example 68, N-(4-Chloro-8-guanidinocarbonyl-6-methyl-10,10-dioxo-10,11-dihydro-5-oxa-10lambda*6*-thia-dibenzo[a,d]cyclohepten-2-yl)-N-(2-morpholin-4-yl-ethyl)-acetamide dimesylate], with 198 to 200 °C; and `CS(=O)(=O)O.CS(=O)(=O)O.Cc1cc(C(=O)NC(=N)N)cc2c1Oc1c(Cl)cc(N3CCN(CC4CC4)CC3)cc1CS2(=O)=O` [Example 123, N-[4-Chloro-2-(4-cyclopropylmethyl-piperazin-1-yl)-6-methyl-10,10-dioxo-10,11-dihydro-5-oxa-10lambda*6*-thia-dibenzo[a,d]cycloheptene-8-carbonyl]-guanidine dimesylate], with 282 to 287 °C; and `CS(=O)(=O)O.CS(=O)(=O)O.Cc1cc(C(=O)NC(=N)N)cc2c1Oc1c(Cl)cc(NC(=O)CNC3CCC3)cc1CS2(=O)=O` [Example 143, N-(4-Chloro-8-guanidinocarbonyl-6-methyl-10,10-dioxo-10,11-dihydro-5-oxa-10lambda*6*-thia-dibenzo[a,d]cycloheptene-2-yl)-2-cyclobutylamino-acetamide dimesylate], with 190 to 192 °C.
Turning to `Cc1cc2c(cc1C(=O)N=C(N)N)S(=O)(=O)Cc1ccccc1O2` (as salt: sulfonic acid salt) [Example 27, N-(7-Methyl-10,10-dioxo-10,11-dihydro-5-oxa-10lambda*6*-thia-dibenzo[a,d]cycloheptene-8-carbonyl)-guanidine, methane sulfonic acid salt], the melting point is 272 to 274 °C.
Regarding `CCN(CCN1CCOCC1)c1cc(Cl)c2c(c1)CS(=O)(=O)c1cc(C(=O)NC(=N)N)cc(C)c1O2.CS(=O)(=O)O.CS(=O)(=O)O` [Example 67, N-{4-Chloro-2-[ethyl-(2-morpholin-4-yl-ethyl)-amino]-6-methyl-10,10-dioxo-10,11-dihydro-5-oxa-10lambda*6*-thia-dibenzo[a,d]cycloheptene-8-carbonyl}-guanidine dimesylate], the melting point fell in the range of 248 to 250 °C.
Turning to `CS(=O)(=O)O.CS(=O)(=O)O.Cc1cc(C(=O)NC(=N)N)cc2c1Oc1c(Cl)cc(S(=O)(=O)N3CCN(C)CC3)cc1CS2(=O)=O` [Example 54, N-[4-Chloro-6-methyl-2-(4-methyl-piperazine-1-sulfonyl)-10,10-dioxo-10,11-dihydro-5-oxa-10lambda*6*-thia-dibenzo[a,d]cyclohepten-8-carbonyl]-guanidine dimesylate], the melting point fell in the range of 187 to 189 °C.
Next, `CS(=O)(=O)O.CS(=O)(=O)O.Cc1cc(C(=O)NC(=N)N)cc2c1Oc1c(Cl)cc(NCCNCc3cccs3)cc1CS2(=O)=O` [Example 86, N-(4-Chloro-6-methyl-10,10-dioxo-2-{2-[(thiophen-2-ylmethyl)-amino]-ethylamino}-10,11-dihydro-5-oxa-10lambda*6*thia-dibenzo[a,d]cycloheptene-8-carbonyl)-guanidine dimesylate]: 243 to 245 °C; `CS(=O)(=O)O.CS(=O)(=O)O.Cc1cc(C(=O)NC(=N)N)cc2c1Oc1c(Cl)cc(NC(=O)CN(C)C)cc1CS2(=O)=O` [Example 142, N-(4-Chloro-8-guanidinocarbonyl-6-methyl-10,10-dioxo-10,11-dihydro-5-oxa-10lambda*6*-thia-dibenzo[a,d]cyclohepten-2-yl)-2-dimethylamino-acetamide dimesylate]: 190 to 191 °C; `CS(=O)(=O)O.CS(=O)(=O)O.Cc1cc(C(=O)NC(=N)N)cc2c1Oc1c(Cl)cc(NC(=O)CNC3CCCC3)cc1CS2(=O)=O` [Example 140, N-(4-Chloro-8-guanidinocarbonyl-6-methyl-10,10-dioxo-10,11-dihydro-5-oxa-10lambda*6*-thia-dibenzo[a,d]cyclohepten-2-yl)-2-cyclopentylamino-acetamide dimesylate]: 190 to 192 °C.
Then `CS(=O)(=O)O.N=C(N)NC(=O)c1ccc2c(c1)S(=O)(=O)Cc1c(F)cccc1O2` [Example 6, N-(1-Fluoro-10,10-dioxo-10,11-dihydro-5-oxa-10lambda*6*-thia-dibenzo[a,d]cycloheptene-8-carbonyl)-guanidine, methanesulfonic acid salt], with 231 to 232 °C.
Then `CS(=O)(=O)O.CS(=O)(=O)O.CS(=O)(=O)O.Cc1cc(C(=O)NC(=N)N)cc2c1Oc1c(Cl)cc(N3CCN(CCN4CCOCC4)CC3)cc1CS2(=O)=O` [Example 121, N-{4-Chloro-6-methyl-2-[4-(2-morpholin-4-yl-ethyl)-piperazin-1-yl]-10,10-dioxo-10,11-dihydro-5-oxa-10lambda*6*-thia-dibenzo[a,d]cycloheptene-8-carbonyl}-guanidine trimesylate], with 185 to 187 °C; and `CS(=O)(=O)O.CS(=O)(=O)O.Cc1cc(C(=O)NC(=N)N)cc2c1Oc1c(Cl)cc(NC(=O)CN3CCCCC3)cc1CS2(=O)=O` [Example 134, N-(4-Chloro-8-guanidinocarbonyl-6-methyl-10,10-dioxo-10,11-dihydro-5-oxa-10lambda*6*-thia-dibenzo[a,d]cycloheptene-2-yl)-2-piperidin-1-yl-acetamide dimesylate], with 178 to 180 °C; and `CS(=O)(=O)O.CS(=O)(=O)O.Cc1cc(C(=O)NC(=N)N)cc2c1Oc1c(Cl)cc(N3CCN(C4CC4)CC3)cc1CS2(=O)=O` [Example 125, N-[4-Chloro-2-(4-cyclopropyl-piperazin-1-yl)-6-methyl-10,10-dioxo-10,11-dihydro-5-oxa-10lambda*6*-thia-dibenzo[a,d]cycloheptene-8-carbonyl]-guanidine dimesylate], with 245 to 248 °C.
For the molecule `Cc1cc(C(=O)N=C(N)N)cc2c1Oc1c(cccc1C(C)C)CS2(=O)=O` (as salt: sulfonic acid salt) [Example 31, N-(4-Isopropyl-6-methyl-10,10-dioxo-10,11-dihydro-5-oxa-10lambda*6*-thia-dibenzo[a,d]cycloheptene-8-carbonyl)-guanidine, methane sulfonic acid salt], the melting point is 252 to 253 °C.
Then `Cc1cc(C(=O)N=C(N)N)cc2c1Oc1c(Cl)cc(CN)cc1CS2(=O)=O` (as salt: mesylate) [Example 198, N-(2-Aminomethyl-4-chloro-6-methyl-10,10-dioxo-10,11-dihydro-5-oxa-10lambda*6*-thia-dibenzo[a.d]cycloheptene-8-carbonyl)-guanidine trimesylate], with 242 to 244 °C; and `CCCCCN1CCN(c2cc(Cl)c3c(c2)CS(=O)(=O)c2cc(C(=O)NC(=N)N)cc(C)c2O3)CC1.CS(=O)(=O)O.CS(=O)(=O)O` [Example 106, N-[4-Chloro-6-methyl-10,10-dioxo-2-(4-pentyl-piperazin-1-yl)-10,11-dihydro-5-oxa-10-lambda*6*-thia-dibenzo[a,d]cycloheptene-8-carbonyl]-guanidine dimesylate], with 250 to 251 °C; and `CS(=O)(=O)O.CS(=O)(=O)O.Cc1cc(C(=O)NC(=N)N)cc2c1Oc1c(Cl)cc(NC(=O)CN3CCN(c4cccc(C(F)(F)F)c4)CC3)cc1CS2(=O)=O` [Example 145, N-(4-Chloro-8-guanidinocarbonyl-6-methyl-10,10-dioxo-10,11-dihydro-5-oxa-10lambda*6*-thia-dibenzo[a,d]cyclohepten-2-yl)-2-[4-(3-trifluoromethyl-phenyl)-piperazin-1-yl]-acetamide dimesylate], with 222 °C.
